molecular target: T1, D(4) dopamine receptor (Homo sapiens, UniProt P21917); assay: Ability to displace [3H]spiperone from dopamine receptor D4.4 expressed in CHO-K1 cells
T1 sequence (P21917 whole entry): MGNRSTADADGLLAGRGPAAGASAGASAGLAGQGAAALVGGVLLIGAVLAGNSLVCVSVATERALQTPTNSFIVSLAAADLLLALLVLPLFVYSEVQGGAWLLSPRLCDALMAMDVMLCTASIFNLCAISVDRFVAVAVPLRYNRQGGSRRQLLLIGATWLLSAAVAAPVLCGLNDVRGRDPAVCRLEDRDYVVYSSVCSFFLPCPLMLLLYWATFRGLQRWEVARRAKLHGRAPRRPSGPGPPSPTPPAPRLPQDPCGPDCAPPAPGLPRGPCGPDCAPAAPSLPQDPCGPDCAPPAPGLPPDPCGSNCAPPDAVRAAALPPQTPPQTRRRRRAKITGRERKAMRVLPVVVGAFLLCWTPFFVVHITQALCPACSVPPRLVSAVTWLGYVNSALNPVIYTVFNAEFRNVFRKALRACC

**Q.** How did the Ki turn out when FC(F)(F)c1cccc(N2CCN(Cc3cnn4ccccc34)CC2)c1 was run?
**A.** The Ki was 1.91 nM.

**Q.** Which Ki does the source give for C#Cc1cccc2c(CN3CCN(c4ccc(Cl)cc4)CC3)cnn12 [3-[4-(4-Chloro-phenyl)-piperazin-1-ylmethyl]-7-ethynyl-pyrazolo[1,5-a]pyridine] here?
**A.** The Ki was 1.23 nM.

**Q.** N#CC(C#N)=Cc1ccc(CN2CCN(c3ccc(Cl)cc3)CC2)[nH]1 [4-(4-Chloro-phenyl)-1-[5-(2,2-dicyano-vinyl)-1H-pyrrol-2-ylmethyl]-piperazin-1-ium] was tested. Which Ki did it give?
**A.** Its Ki is 9.55 nM.

**Q.** OCc1ccc2c(CN3CCN(c4ccccc4)CC3)cnn2c1 was tested. Which Ki did it give?
**A.** The Ki was 19.5 nM.

**Q.** With Clc1ccc(N2CCN(Cc3cc4ccccc4[nH]3)CC2)cc1 as the compound, how does the Ki read?
**A.** The Ki was 18.2 nM.

**Q.** C#Cc1ccc(N2CCN(Cc3cnn4ccccc34)CC2)cc1 was tested. Which Ki did it give?
**A.** Its Ki is 4.37 nM.

**Q.** For Fc1ccc(N2CCN(Cc3cnn4ccccc34)CC2)cc1, which Ki is on record?
**A.** The Ki was 20 nM.

**Q.** How did the Ki turn out when Clc1ccc(N2CCN(Cc3ccc[nH]3)CC2)cc1 was run?
**A.** Its Ki is 26.3 nM.

**Q.** For Clc1cccc(N2CCN(Cc3cnn4c3ccc3ccccc34)CC2)c1, which Ki is on record?
**A.** The Ki was 218 nM.

**Q.** Which Ki does the source give for CCN1CCN(Cc2cnn3ccccc23)CC1 here?
**A.** Its Ki is 23900 nM.

**Q.** With Clc1ccc(N2CCN(Cc3cnn4ccccc34)CC2)cc1Cl as the compound, how does the Ki read?
**A.** The Ki was 5.62 nM.

**Q.** How did the Ki turn out when Clc1cccc(N2CCN(Cc3cnn4ccc5ccccc5c34)CC2)c1 was run?
**A.** Its Ki is 794 nM.

**Q.** How did the Ki turn out when Cc1cccn2ncc(CN3CCN(c4ccc(Cl)cc4)CC3)c12 [3-[4-(4-Chloro-phenyl)-piperazin-1-ylmethyl]-4-methyl-pyrazolo[1,5-a]pyridine] was run?
**A.** The Ki was 50.1 nM.

**Q.** With Clc1ccc(N2CCN(Cc3cc4ccccn4n3)CC2)cc1 [4-(4-Chloro-phenyl)-1-pyrazolo[1,5-a]pyridin-2-ylmethyl-piperazin-1-ium] as the compound, how does the Ki read?
**A.** The Ki was 2.19 nM.

**Q.** Cc1cccc2c(CN3CCN(c4ccc(Cl)cc4)CC3)cnn12 [4-(4-Chloro-phenyl)-1-(7-methyl-pyrazolo[1,5-a]pyridin-3-ylmethyl)-piperazin-1-ium] was tested. Which Ki did it give?
**A.** Its Ki is 2.69 nM.

**Q.** Clc1ccc(N2CCN(Cc3cnn4c(I)cccc34)CC2)cc1 was tested. Which Ki did it give?
**A.** Its Ki is 5.01 nM.

**Q.** For Clc1ccc(N2CCN(Cc3ccccc3)CC2)cc1, which Ki is on record?
**A.** The Ki was 251 nM.

**Q.** For Clc1ccc(N2CCN(Cc3cc[nH]c3)CC2)cc1, which Ki is on record?
**A.** Its Ki is 38.9 nM.
